Measurements taken from PMC12363342, “Investigating the N-terminal linker histone H1 subtypes as substrates for JmjC lysine demethylases” (RSC Chemical Biology, 2025).
Square brackets hold non-standard residues; d marks the D form. Ends that are not written are not given here. Lys(Me3) = C[N+](C)(C)CCCC[C@H](N)C(=O)O

How the values were obtained:
[1] = biological target: T1, KDM4D (Homo sapiens, UniProt Q6B0I6); assay: LC-MS demethylation activity assay, KDM4D; type: biochemical; settings: room temperature; for KDM4D demethylation activity, T: 2 μM KDM, 10 μM H1/H3 peptide, 50 mM HEPES pH 7.5, 2 h, T (tri-) initial methylation state; for KDM4D demethylation activity, T / substrate conversion (demethylation) by KDM4D: 10 μM FAS, 100 μM LAA, 20 μM 2OG; for substrate conversion (demethylation) by KDM4D / di-methylated product formed by KDM4D / mono-methylated product formed by KDM4D: 2 μM KDM4D, 10 μM peptide; for substrate conversion (demethylation) by KDM4D: HEPES pH 7.5, 2 h; for di-methylated product formed by KDM4D / mono-methylated product formed by KDM4D: standard conditions, 2 h
T1 construct: KDM4AM1-L359,[38]; KDM4DM1-L359,[39]; KDM4EM1-R336,[30]; His6 (N); made in house; host or cells: Escherichia coli
T1 sequence (Q6B0I6 1-359): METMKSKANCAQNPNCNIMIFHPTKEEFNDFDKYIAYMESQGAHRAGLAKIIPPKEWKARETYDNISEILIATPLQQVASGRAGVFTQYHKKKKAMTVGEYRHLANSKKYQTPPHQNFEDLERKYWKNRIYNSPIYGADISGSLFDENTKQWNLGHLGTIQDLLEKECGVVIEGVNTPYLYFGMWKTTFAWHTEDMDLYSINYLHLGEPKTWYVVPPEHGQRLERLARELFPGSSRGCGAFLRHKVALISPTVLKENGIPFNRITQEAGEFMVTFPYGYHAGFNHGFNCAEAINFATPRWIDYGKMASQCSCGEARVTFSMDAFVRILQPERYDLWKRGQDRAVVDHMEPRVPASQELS
Outline: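 His6-tagged recombinant catalytic domains (2.0 μM) were used: KDM4A M1–L359, KDM4D M1–L359 and KDM3C L2157–L2500 from E. coli, and KDM5D M1–D775 from Sf9. Each acted on 10 μM H1 peptide in 50 mM HEPES pH 7.5 with 10 μM Fe(II), 100 μM ascorbate and 20 μM 2OG for 2 h at room temperature. Reactions were formic acid-quenched and analysed by LC-MS.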

[2] = system: KDM6B; assay: LC-MS demethylation activity assay, KDM6B; type: biochemical, human; settings: 2 μM KDM, 10 μM H1/H3 peptide, 10 μM FAS, 100 μM LAA, 20 μM 2OG, 50 mM HEPES pH 7.5, 2 h, room temperature, T (tri-) initial methylation state
Outline: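 H1 isoform peptides (10 μM) were incubated 2 h at room temperature with 2 μM recombinant N-terminally His6-tagged catalytic domains in 50 mM HEPES pH 7.5 containing FAS (10 μM), ascorbate (100 μM) and 2OG (20 μM). Reactions were quenched with formic acid (1% final), and demethylation was analysed by LC-MS (Q-TOF).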

Substance	KDM4D demethylation activity, T [1]	KDM6B demethylation activity, T [2]	substrate conversion (demethylation) by KDM4D [1] [%]	di-methylated product formed by KDM4D [1] [%]	mono-methylated product formed by KDM4D [1] [%]
KKKATK[Lys(Me3)]AAGAGAAK [Peptide H1.5K26me3, 15-mer linker histone H1.5 residues 20-34 peptide, tri-methylated K26]	● [green] (green dots indicate good demethylation (>50% conversion))	● [red]	–	–	–
KKKAA[Lys(Me3)]KAGGTPRKA [Peptide H1.2K25me3, 15-mer linker histone H1.2 residues 20-34 peptide, tri-methylated K25]	● [red]	● [red]	–	–	–
KKKAAK[Lys(Me3)]AGGTPRKA [Peptide H1.2K26me3, 15-mer linker histone H1.2 residues 20-34 peptide, tri-methylated K26]	● [green] (green dots indicate good demethylation (>50% conversion))	● [red]	~70	~30	~40
KKKAR[Lys(Me3)]SAGAAKRKA [Peptide H1.4K25me3, 15-mer linker histone H1.4 residues 20-34 peptide, tri-methylated K25]	● [green] (green dots indicate good demethylation (>50% conversion))	● [red]	~92	~30	~62
KKKA[Lys(Me3)]KAGATAGKRK [Peptide H1.3K24me3, 15-mer linker histone H1.3 residues 20-34 peptide, tri-methylated K24]	● [green] (green dots indicate good demethylation (>50% conversion))	● [red]	~68	~30	~40
